# Experimental data reported in patent US8338597B2, “Pyridones useful as inhibitors of kinases” (Vertex Pharmaceuticals Incorporated, priority 2004, dated 2012).
# Biological target: T1, Itk (Homo sapiens, UniProt Q08881)
# T1 sequence (Q08881 1-620): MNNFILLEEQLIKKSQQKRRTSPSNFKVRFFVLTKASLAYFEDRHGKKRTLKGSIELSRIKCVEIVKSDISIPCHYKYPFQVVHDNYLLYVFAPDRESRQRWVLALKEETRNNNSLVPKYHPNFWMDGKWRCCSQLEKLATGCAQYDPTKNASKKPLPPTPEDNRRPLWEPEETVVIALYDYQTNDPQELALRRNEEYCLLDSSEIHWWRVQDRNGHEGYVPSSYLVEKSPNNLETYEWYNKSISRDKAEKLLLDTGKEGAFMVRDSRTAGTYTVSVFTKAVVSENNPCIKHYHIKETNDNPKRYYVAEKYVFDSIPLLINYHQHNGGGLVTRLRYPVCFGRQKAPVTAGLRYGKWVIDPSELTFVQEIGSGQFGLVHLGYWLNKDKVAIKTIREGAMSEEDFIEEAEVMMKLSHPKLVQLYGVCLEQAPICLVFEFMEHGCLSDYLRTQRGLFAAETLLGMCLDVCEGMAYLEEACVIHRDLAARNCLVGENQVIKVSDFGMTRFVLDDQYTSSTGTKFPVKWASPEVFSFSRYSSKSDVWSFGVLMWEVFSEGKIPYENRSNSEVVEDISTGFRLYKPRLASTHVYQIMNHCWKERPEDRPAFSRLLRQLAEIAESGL
# Test: ITK inhibition assay, radioactive-phosphate incorporation
# Assay type: biochemical
# Settings: [γ-33P]ATP, SAM68 peptide, 25° C.
# Description: Assays were carried out in a mixture of 20 mM MOPS (pH 7.0), 10 mM MgCl2, 0.1% BSA and 1 mM DTT. […] Assays were carried out at 25° C. in the presence of 50 nM Itk. An assay stock buffer solution was prepared containing all of the reagents listed above, with the exception of ATP and the test compound of interest.
# The reaction was stopped after 10 minutes by the addition of […] 0.2M phosphoric acid+0.01% TWEEN 20. A multiscreen phosphocellulose filter 96-well plate (Millipore, Cat no. MAPHN0B50) was pretreated with 100 μL 0.2M phosphoric acid+0.01% TWEEN 20 prior to the addition of […] of the stopped assay mixture. The plate was washed with 4×200 μL 0.2M phosphoric acid+0.01% TWEEN 20.
# Ki(app) data were calculated from non-linear regression analysis of the initial rate data using the Prism software package (GraphPad Prism version 3.0cx for Macintosh, GraphPad Software, San Diego Calif., USA).
row,Ki [nM],Structure (SMILES)
1,< 100,C[C@H](CN)Nc1cccc(-c2c[nH]c(=O)c(NC(=O)c3ccc(N4CCCCC4)cc3)c2)n1 [II-129]
2,< 100,CNc1cncc(-c2c[nH]c(=O)c(NC(=O)c3ccc(N4CCC(CCO)CC4)cc3)c2)n1 [II-156]
3,< 100,CNc1cncc(-c2c[nH]c(=O)c(NC(=O)c3ccc(OC4CCNCC4)cc3)c2)n1 [II-181]
4,< 100,CNc1cc(-c2c[nH]c(=O)c(NC(=O)c3ccc(N4CCC[C@H]4CN4CCCC4)cc3)c2)ncn1 [II-136]
5,100 to 1000,CNc1cc(-c2c[nH]c(=O)c(NC(=O)c3ccc(C4=CCNCC4)cc3)c2)ncn1 [II-137]
6,100 to 1000,"O=C(Nc1cc(-c2ccncc2)c[nH]c1=O)c1ccc(Br)cc1 [Compound I-20, 4-Bromo-N-(1,2-dihydro-2-oxo-5-(pyridin-4-yl)pyridin-3-yl)benzamide]"
7,100 to 1000,O=C(Nc1cc(-c2cc(N[C@@H]3CCNC3)ncn2)c[nH]c1=O)c1ccc(N2CCCCC2)cc1 [II-45]
8,< 100,CNc1cccc(-c2c[nH]c(=O)c(NC(=O)c3ccc(OCCC4CCNCC4)cc3)c2)n1 [II-134]
9,100 to 1000,O=C(Nc1cc(-c2ccncc2)c[nH]c1=O)c1ccc(N2CCOCC2)cc1 [Compound I-73]
10,< 100,CNc1cc(-c2c[nH]c(=O)c(NC(=O)c3ccc(OCCC4CCNCC4)cc3)c2)ncn1 [II-142]
11,< 100,O=C(Nc1ccc(N2CCC(O)CC2)cc1)c1cc(-c2ccncc2)c[nH]c1=O [III-52]
12,< 100,CNc1cncc(-c2c[nH]c(=O)c(NC(=O)c3ccc(OCCCN4CCCCC4)cc3)c2)n1 [II-177]
13,100 to 1000,O=C(Nc1ccc(C2CCCCC2)cc1)c1cc(-c2ccncc2)c[nH]c1=O [III-43]
14,100 to 1000,CNc1cccc(-c2c[nH]c(=O)c(NC(=O)c3ccc(N4CCCCC4)cc3)c2)c1 [II-69]
15,< 100,COCCCN1CCN(c2ccc(C(=O)Nc3cc(-c4ccncc4)c[nH]c3=O)cc2)CC1 [Compound I-77]
16,100 to 1000,CCOc1nccc(-c2c[nH]c(=O)c(NC(=O)c3ccc(N4CCCCC4)cc3)c2)n1 [II-57]
17,100 to 1000,O=C(Nc1cc(-c2ccncc2)c[nH]c1=O)c1ccc(N2CCC(N3CCCC3)CC2)cc1 [Compound I-75]
18,< 100,O=C(Nc1cc(-c2ccncc2)c[nH]c1=O)c1ccc(N2CCN(CCOCCO)CC2)cc1 [Compound I-81]
19,< 100,CNc1cncc(-c2c[nH]c(=O)c(NC(=O)c3ccc(N(C)CCCN(C)C)cc3)c2)n1 [II-167]
20,100 to 1000,CNc1ncc(C)c(-c2c[nH]c(=O)c(NC(=O)c3ccc(C(C)(C)C)cc3)c2)n1 [II-62]
21,< 100,CNc1cc(-c2c[nH]c(=O)c(NC(=O)c3ccc(N4C[C@@H](C)N[C@@H](C)C4)cc3)c2)ncn1 [II-135]
22,< 100,CNc1cc(-c2c[nH]c(=O)c(NC(=O)c3ccc(N4CCC[C@H]4CN4CCCC4)cc3)c2)ccn1 [II-172]
23,100 to 1000,O=C(Nc1cc(-c2ccncc2)c[nH]c1=O)c1ccc(OCc2ccccc2)cc1 [Compound I-46]
24,100 to 1000,O=C(Nc1cc(-c2cccc(CO)n2)c[nH]c1=O)c1ccc(N2CCCCC2)cc1 [II-121]
25,100 to 1000,CC(C)Oc1ccc(C(=O)Nc2cc(-c3ccncc3)c[nH]c2=O)cc1 [Compound I-21]
26,< 100,CC(C)[C@@H](CO)Nc1cncc(-c2c[nH]c(=O)c(NC(=O)c3ccc(N4CCNCC4)cc3)c2)n1 [II-131]

# The remaining lines, values behind:
row,Structure (SMILES),Ki [nM]
1,CC(=O)NCCNc1cccc(-c2c[nH]c(=O)c(NC(=O)c3ccc(N4CCCCC4)cc3)c2)n1 [II-101],100 to 1000
2,CNc1cc(-c2c[nH]c(=O)c(NC(=O)c3ccc(N4CCCCC4)cc3)c2)nc(NC)n1 [II-123],100 to 1000
3,CC(C)(C)C(CO)Nc1cccc(-c2c[nH]c(=O)c(NC(=O)c3ccc(N4CCCCC4)cc3)c2)n1 (stereo not shown) [II-133],100 to 1000
4,CNc1cncc(-c2c[nH]c(=O)c(NC(=O)c3ccc(N4CCNCC4)cc3)c2)n1 [II-139],< 100
5,CCC(C)[C@@H](CO)Nc1cccc(-c2c[nH]c(=O)c(NC(=O)c3ccc(N4CCCCC4)cc3)c2)n1 (stereo partly shown) [II-152],100 to 1000
6,O=C(Nc1cc(-c2ccncc2)c[nH]c1=O)c1ccc(N2CCC(O)CC2)cc1 [Compound I-72],100 to 1000
7,O=C(Nc1cc(-c2ccnc(NCCO)n2)c[nH]c1=O)c1ccc(N2CCCCC2)cc1 [II-59],100 to 1000
8,CC(C)[C@H](CO)Nc1cccc(-c2c[nH]c(=O)c(NC(=O)c3ccc(N4CCCCC4)cc3)c2)n1 [II-132],100 to 1000
9,CNC(=O)c1cccc(-c2c[nH]c(=O)c(NC(=O)c3ccc(N4CCCCC4)cc3)c2)n1 [II-124],100 to 1000
10,CCN1CCCC1CNc1cccc(-c2c[nH]c(=O)c(NC(=O)c3ccc(N4CCCCC4)cc3)c2)n1 (stereo not shown) [II-120],100 to 1000
11,CCN1CCN(c2ccc(NC(=O)c3cc(-c4ccncc4)c[nH]c3=O)cc2)CC1 [III-47],< 100
12,CNc1cncc(-c2c[nH]c(=O)c(NC(=O)c3ccc(OCC4CCNCC4)cc3)c2)n1 [II-153],< 100
13,CNc1cc(-c2c[nH]c(=O)c(NC(=O)c3ccc(N4CCNCC4)cc3)c2)ncn1 [II-126],< 100
14,CN(C)c1ccc(C(=O)Nc2cc(-c3ccncc3)c[nH]c2=O)cc1 [Compound I-45],100 to 1000
15,O=C(Nc1ccc(N2CCNCC2)cc1)c1cc(-c2ccncc2)c[nH]c1=O [III-54],< 100
16,N#Cc1cncc(-c2c[nH]c(=O)c(NC(=O)c3ccc(N4CCCCC4)cc3)c2)c1 [II-99],100 to 1000
17,O=C(Nc1cc(-c2cccc(NC(CO)CO)n2)c[nH]c1=O)c1ccc(N2CCCCC2)cc1 [II-174],100 to 1000
18,CC(C)(C)c1ccc(C(=O)Nc2cc(-c3cccc(NC4CCNCC4)n3)c[nH]c2=O)cc1 [II-32],100 to 1000
19,CC(C)(C)c1ccc(C(=O)Nc2cc(-c3ccncn3)c[nH]c2=O)cc1 [II-34],100 to 1000
20,COc1ccc(NC(=O)c2cc(-c3ccncc3)c[nH]c2=O)cc1OC [III-16],100 to 1000
21,COc1ccc(NC(=O)c2cc(-c3ccncc3)c[nH]c2=O)cc1 [III-11],100 to 1000
22,CCOc1ccc(NC(=O)c2cc(-c3ccncc3)c[nH]c2=O)cc1 [III-45],100 to 1000

row,Structure (SMILES),Ki [nM]
1,CNc1cncc(-c2c[nH]c(=O)c(NC(=O)c3ccc(OCCN4CCNCC4)cc3)c2)n1 [II-158],< 100
2,CSc1nccc(-c2c[nH]c(=O)c(NC(=O)c3ccc(N4CCCCC4)cc3)c2)n1 [II-52],100 to 1000
3,CNCCNc1nccc(-c2c[nH]c(=O)c(NC(=O)c3ccc(C(C)(C)C)cc3)c2)n1 [II-20],< 100
4,CNc1cncc(-c2c[nH]c(=O)c(NC(=O)c3ccc(N4CCC[C@H]4CO)cc3)c2)n1 [II-147],< 100
5,CNc1cncc(-c2c[nH]c(=O)c(NC(=O)c3ccc(OCCCN4CCOCC4)cc3)c2)n1 [II-182],< 100
6,O=C(Nc1cc(-c2ccccn2)c[nH]c1=O)c1ccc(N2CCCCC2)cc1 [II-140],100 to 1000
7,O=C(Nc1cc(-c2cncc(NC3CC3)n2)c[nH]c1=O)c1ccc(N2CCC[C@H]2CN2CCCC2)cc1 [II-176],100 to 1000
8,CCNc1cncc(-c2c[nH]c(=O)c(NC(=O)c3ccc(N4CCC[C@H]4CN4CCCC4)cc3)c2)n1 [II-175],100 to 1000
9,CNc1cccc(-c2c[nH]c(=O)c(NC(=O)c3ccc(OCC4CCNCC4)cc3)c2)n1 [II-157],< 100
10,O=C(Nc1cc(-c2ccncc2)c[nH]c1=O)c1ccc(O)cc1 [Compound I-47],100 to 1000
11,O=C(Nc1ccc(N2CCOCC2)cc1)c1cc(-c2ccncc2)c[nH]c1=O [III-42],< 100
12,Cn1cncc1-c1c[nH]c(=O)c(NC(=O)c2ccc(N3CCNCC3)cc2)c1 [II-144],100 to 1000
13,N#Cc1ccnc(-c2c[nH]c(=O)c(NC(=O)c3ccc(N4CCNCC4)cc3)c2)c1 [II-161],100 to 1000
14,COCCNc1cccc(-c2c[nH]c(=O)c(NC(=O)c3ccc(N4CCCCC4)cc3)c2)n1 [II-71],100 to 1000
15,O=C(Nc1cc(-c2ccncc2)c[nH]c1=O)c1ccc(Oc2ccccc2)cc1 [Compound I-22],100 to 1000
16,CNc1cncc(-c2c[nH]c(=O)c(NC(=O)c3ccc(N4CCCNCC4)cc3)c2)n1 [II-146],< 100
17,CNc1cncc(-c2c[nH]c(=O)c(NC(=O)c3ccc(N4CCN(C)CC4)cc3)c2)n1 [II-155],< 100
18,CCc1cc(-c2c[nH]c(=O)c(NC(=O)c3ccc(N4CCCCC4)cc3)c2)nc(NC)n1 [II-66],< 100
19,CC[C@@H](CO)Nc1cccc(-c2c[nH]c(=O)c(NC(=O)c3ccc(N4CCCCC4)cc3)c2)n1 [II-151],100 to 1000
20,CC(C)Nc1nccc(-c2c[nH]c(=O)c(NC(=O)c3ccc(C(C)(C)C)cc3)c2)n1 [II-23],< 100
21,O=C(Nc1ccc(Br)cc1)c1cc(-c2ccncc2)c[nH]c1=O [III-8],100 to 1000
22,O=C(Nc1cc(-c2cccc(NCC3CCNCC3)n2)c[nH]c1=O)c1ccc(N2CCCCC2)cc1 [II-105],100 to 1000
